Data taken from patent US9566312B2, “Cyclic peptides and use as medicines” (priority 2012, dated 2017).
Like-named read-outs stand apart in the source and are kept apart here. Starred links: 1 amine or outer side, 2 acyl side, 3 side chain; linkers in the order of their positions; H or OH if unused. Non-standard residues stand in square brackets, D forms with d. Residues, ends and D or L forms follow the SMILES beside them. X5 = C[C@H](COC(=O)N1CCN(C)CC1)[C@@H](C(=O)[*:2])N(C)[*:1]; X4 = C[C@H](CS(C)(=O)=O)[C@@H](C(=O)[*:2])N(C)[*:1]; X3 = C[C@H](CN1CCOCC1)[C@@H](C(=O)[*:2])N(C)[*:1]; MeBmt = C/C=C/C[C@@H](C)[C@@H](O)[C@H](NC)C(=O)O; X77 = COC[C@H](C)[C@@H](C(=O)[*:2])N(C)[*:1]; NMeL = CN[C@@H](CC(C)C)C(=O)O; NMeV = CN[C@H](C(=O)O)C(C)C; dNMeA = CN[C@H](C)C(=O)O; Abu = CC[C@H](N)C(=O)O

Experiments:
HBV in HepG2215 cells = settings: cited from earlier work
hepatitis C virus = settings: patients, 1200 mg twice daily; cited from earlier work
HCV replicon = settings: cited from earlier work
CypF = CypF (Homo sapiens (Human), UniProt P30405); test: Inhibitor binding to cyclophilin proteins by SPR, CypF; settings: 1:1 binding model
Method in brief: (§1)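 Mono-biotinylated avi-tagged cyclophilins captured on a Biotin CAPture chip. Single-cycle kinetics at 50 μL/min, 1 min contacts, 10 min final dissociation, in 10 mM HEPES pH 7.4, 150 mM NaCl, 0.05% P20, 3% DMSO. kon, koff and KD from a 1:1 binding model.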

cyclophilin B (CypB) = cyclophilin B (CypB) (Homo sapiens (Human), UniProt P23284); test: Inhibitor binding to cyclophilin proteins by SPR, CypB; design: unit not given here; settings: 1:1 binding model
Method in brief: as §1

cyclophilin A (CypA) = cyclophilin A (CypA) (Homo sapiens (Human), UniProt P62937); test: Inhibitor binding to cyclophilin proteins by SPR, CypA; design: unit not given here; settings: 1:1 binding model;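 note: Single-cycle kinetics on a Biacore T200, compound injected at several concentrations for 1 min each at 50 µL/min, then 10 min dissociation, in HEPES pH 7.4 buffer with 3% DMSO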
[1] = tested on: peripheral blood mononuclear cells (PBMC); test: Anti-proliferative or immunosuppressive activity, BrdU incorporation in PHA-stimulated PBMC; assay type: cell-based; settings: PHA 3 μg/ml, 60 hour compound treatment; read-out: EMV PBMC IC50
Method in brief: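 BrdU ELISA read-out of DNA synthesis in freshly isolated PBMCs (two donors, 30,000 cells/well, X-VIVO 15). T-cell proliferation triggered with phytohemagglutinin at 3 μg/ml.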

[2] = tested on: genotype 1b subgenomic HCV replicon in Huh7.5 cells; assay type: cell-based, hepatitis C virus; settings: read-out: RPLN-1b IC50
Method in brief: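 Replicon inhibition read as renilla luciferase signal versus DMSO controls after 72 h incubation, in Huh7.5 cells harbouring a genotype 1b subgenomic replicon; medium phenol red-free DMEM lacking G418. CC50 determined in parallel via Cell Titer-Glo.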

CYP3A4 = CYP3A4 (Homo sapiens (Human), UniProt P08684); test: Time-dependent inhibition of CYP3A4;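 note: Two-step in vitro assay, kobs derived from residual CYP3A4 activity versus preincubation time per concentration, then kinact and KI by nonlinear fit of kobs against concentration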
Human MRP2 = Human MRP2 (Homo sapiens (Human), UniProt Q92887); test: MRP2 transporter vesicle assay; assay type: in vitro ADME
Description: Method 4: Measuring Hepatic Transporter Interactions […] […] MRP2 Assay: Human MRP2 inhibition was tested using a BD Gentest Transporter Vesicle Assay Kit. Inside-out vesicles were prepared from insect Sf9 cells infected with baculovirus expressing hMRP2. […] The percent remaining of ATP dependent uptake activity was calculated as uptake activity in the presence of inhibitor divided by the uptake activity in the absence of inhibitor.

[3] = target: organic anion transporting polypeptide 1B1 (OATP1B1) (Homo sapiens (Human), UniProt Q9Y6L6); test: OATP assay in CHO-OATP1B1 cells;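 note: inhibition of probe substrate uptake into the cells, ten minutes exposure, accumulated substrate read by fluorescence once cells were lysed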
[4] = genotype 1b replicon, 72 h incubation

Sequence of CYP3A4 (P08684 whole entry): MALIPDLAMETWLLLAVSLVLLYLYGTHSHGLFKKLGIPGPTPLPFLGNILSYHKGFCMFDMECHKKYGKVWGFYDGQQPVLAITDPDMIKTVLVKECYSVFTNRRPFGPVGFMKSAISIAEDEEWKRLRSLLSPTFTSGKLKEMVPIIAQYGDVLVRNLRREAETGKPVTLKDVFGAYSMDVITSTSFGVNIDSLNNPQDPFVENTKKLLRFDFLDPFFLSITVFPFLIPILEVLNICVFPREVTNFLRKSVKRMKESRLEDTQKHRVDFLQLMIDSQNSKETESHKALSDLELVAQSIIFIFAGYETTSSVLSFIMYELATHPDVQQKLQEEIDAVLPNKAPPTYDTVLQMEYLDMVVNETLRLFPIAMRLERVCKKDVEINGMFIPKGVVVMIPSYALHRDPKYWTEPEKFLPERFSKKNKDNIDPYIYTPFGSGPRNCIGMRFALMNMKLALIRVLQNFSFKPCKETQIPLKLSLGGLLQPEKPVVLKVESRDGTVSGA
Sequence of cyclophilin A (CypA) (P62937 whole entry): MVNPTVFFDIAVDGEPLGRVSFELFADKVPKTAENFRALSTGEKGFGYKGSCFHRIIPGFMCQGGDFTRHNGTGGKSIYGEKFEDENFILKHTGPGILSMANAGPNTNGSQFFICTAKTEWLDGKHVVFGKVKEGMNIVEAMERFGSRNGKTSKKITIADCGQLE
Sequence of Human MRP2 (Q92887 whole entry): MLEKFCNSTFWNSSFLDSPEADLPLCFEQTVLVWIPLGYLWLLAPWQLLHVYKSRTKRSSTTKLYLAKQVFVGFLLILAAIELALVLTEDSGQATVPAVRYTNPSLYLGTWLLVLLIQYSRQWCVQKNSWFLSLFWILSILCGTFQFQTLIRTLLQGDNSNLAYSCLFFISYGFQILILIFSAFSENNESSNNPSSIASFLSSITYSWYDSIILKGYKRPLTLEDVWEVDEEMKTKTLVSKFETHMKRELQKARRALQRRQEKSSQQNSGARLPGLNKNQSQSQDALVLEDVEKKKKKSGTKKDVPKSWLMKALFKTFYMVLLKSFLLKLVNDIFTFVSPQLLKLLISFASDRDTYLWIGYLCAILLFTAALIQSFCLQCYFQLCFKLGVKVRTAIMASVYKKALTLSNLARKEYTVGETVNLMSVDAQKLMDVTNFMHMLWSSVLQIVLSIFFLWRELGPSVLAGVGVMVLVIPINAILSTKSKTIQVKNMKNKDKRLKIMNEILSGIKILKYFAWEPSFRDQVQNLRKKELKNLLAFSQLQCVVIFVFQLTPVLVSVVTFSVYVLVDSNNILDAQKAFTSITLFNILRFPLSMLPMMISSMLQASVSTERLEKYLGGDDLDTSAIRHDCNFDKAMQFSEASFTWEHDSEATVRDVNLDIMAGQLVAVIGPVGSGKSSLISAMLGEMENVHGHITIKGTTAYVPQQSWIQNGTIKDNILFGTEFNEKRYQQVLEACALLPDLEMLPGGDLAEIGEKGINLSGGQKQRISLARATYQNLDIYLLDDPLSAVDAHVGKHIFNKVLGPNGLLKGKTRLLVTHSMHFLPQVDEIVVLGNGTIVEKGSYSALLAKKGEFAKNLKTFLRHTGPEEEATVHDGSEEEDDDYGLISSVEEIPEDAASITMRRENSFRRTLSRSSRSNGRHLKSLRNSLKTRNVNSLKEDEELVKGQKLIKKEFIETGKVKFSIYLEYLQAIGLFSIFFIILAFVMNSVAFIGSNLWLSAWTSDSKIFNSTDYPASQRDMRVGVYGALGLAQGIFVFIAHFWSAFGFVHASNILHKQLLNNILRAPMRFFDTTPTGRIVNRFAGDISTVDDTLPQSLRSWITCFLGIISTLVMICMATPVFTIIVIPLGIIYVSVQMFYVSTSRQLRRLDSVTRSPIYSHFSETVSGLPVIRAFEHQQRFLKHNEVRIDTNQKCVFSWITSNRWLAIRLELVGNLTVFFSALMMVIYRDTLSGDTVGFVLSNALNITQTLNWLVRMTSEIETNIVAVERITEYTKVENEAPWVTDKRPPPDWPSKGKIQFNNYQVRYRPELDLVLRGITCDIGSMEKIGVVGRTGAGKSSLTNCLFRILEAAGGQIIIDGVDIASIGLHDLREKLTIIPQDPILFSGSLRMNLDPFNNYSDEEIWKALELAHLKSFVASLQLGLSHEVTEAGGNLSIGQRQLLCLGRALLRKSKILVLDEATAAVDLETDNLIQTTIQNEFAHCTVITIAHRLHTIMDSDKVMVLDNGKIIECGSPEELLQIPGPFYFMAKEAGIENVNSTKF
Sequence of CypF (P30405 30-207): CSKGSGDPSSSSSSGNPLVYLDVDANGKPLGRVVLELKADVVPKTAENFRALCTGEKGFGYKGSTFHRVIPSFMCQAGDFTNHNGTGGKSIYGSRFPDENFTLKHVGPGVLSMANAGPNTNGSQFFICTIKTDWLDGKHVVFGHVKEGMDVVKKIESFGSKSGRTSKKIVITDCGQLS
Sequence of organic anion transporting polypeptide 1B1 (OATP1B1) (Q9Y6L6 whole entry): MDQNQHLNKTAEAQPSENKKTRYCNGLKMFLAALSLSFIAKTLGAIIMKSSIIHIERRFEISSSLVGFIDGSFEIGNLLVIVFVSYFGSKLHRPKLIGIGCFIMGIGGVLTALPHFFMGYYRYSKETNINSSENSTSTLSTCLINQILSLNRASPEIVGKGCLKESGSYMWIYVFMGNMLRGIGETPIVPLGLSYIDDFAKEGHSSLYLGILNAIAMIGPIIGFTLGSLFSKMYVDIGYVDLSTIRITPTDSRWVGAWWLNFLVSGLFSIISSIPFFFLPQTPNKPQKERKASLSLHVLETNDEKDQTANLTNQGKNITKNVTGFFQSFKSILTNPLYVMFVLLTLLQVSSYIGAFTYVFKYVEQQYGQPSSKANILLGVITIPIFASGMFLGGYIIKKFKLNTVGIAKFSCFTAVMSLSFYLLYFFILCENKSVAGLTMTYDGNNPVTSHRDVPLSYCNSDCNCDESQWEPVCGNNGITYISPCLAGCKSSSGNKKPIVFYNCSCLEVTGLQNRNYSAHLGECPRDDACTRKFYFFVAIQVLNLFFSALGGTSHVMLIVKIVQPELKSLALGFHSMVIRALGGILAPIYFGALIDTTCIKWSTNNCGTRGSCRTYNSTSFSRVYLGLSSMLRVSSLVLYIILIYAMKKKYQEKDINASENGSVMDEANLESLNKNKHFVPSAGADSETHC
Sequence of cyclophilin B (CypB) (P23284 34-216): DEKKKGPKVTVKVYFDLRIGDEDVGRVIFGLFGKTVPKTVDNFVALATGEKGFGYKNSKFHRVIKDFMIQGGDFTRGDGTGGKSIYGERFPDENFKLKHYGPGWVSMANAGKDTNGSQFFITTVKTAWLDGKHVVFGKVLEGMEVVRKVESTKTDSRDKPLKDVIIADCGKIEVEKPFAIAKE

Structure (SMILES) | CypF Kd (CypF) | CypB Kd (cyclophilin B (CypB)) | CypA Kd (cyclophilin A (CypA)) | IC50 [1] | IC50 (Human MRP2) | IC50 [3] | IC50 [2, 4] | Ki (CYP3A4) | also measured
C/C=C/C[C@@H](C)[C@@H](O)[C@H]1C(=O)N[C@@H](CC)C(=O)N(C)[C@H](C)C(=O)N(CC)[C@@H](C(C)C)C(=O)N[C@@H](C(C)C)C(=O)N(C)[C@@H](CC(C)C)C(=O)N[C@@H](C)C(=O)N[C@H](C)C(=O)N(C)[C@@H](CC(C)C)C(=O)N(C)[C@@H](CC(C)C)C(=O)N(C)[C@@H](C(C)C)C(=O)N1C [alisporivir] |  |  |  |  |  |  |  |  | reduction in intracellular HBV DNA levels (HBV in HepG2215 cells; 5.0 mcg/mL, 72 hours): 10 fold; reduction of HBsAg secretion from cells compared with controls (HBV in HepG2215 cells): about 50%
C/C=C/C[C@@H](C)[C@@H](O)[C@H]1C(=O)N[C@@H](CC)C(=O)N(C)[C@H](C)C(=O)N(CC)[C@@H](C(C)C)C(=O)N[C@@H](C(C)C)C(=O)N(C)[C@@H](CC(C)C)C(=O)N[C@@H](C)C(=O)N[C@H](C)C(=O)N(C)[C@@H](CC(C)C)C(=O)N(C)[C@@H](CC(C)C)C(=O)N(C)[C@@H](C(C)C)C(=O)N1C [DEBIO-025] |  |  |  |  |  |  |  |  | mean hepatitis C load (hepatitis C virus): significantly decreased
C/C=C/C[C@@H](C)[C@@H](O)[C@H]1C(=O)N[C@@H](CC)C(=O)N(C)CC(=O)N(C)[C@@H]([C@@H](C)CC)C(=O)N[C@@H](C(C)C)C(=O)N(C)[C@@H](CC(C)C)C(=O)N[C@@H](C)C(=O)N[C@H](C)C(=O)N(C)[C@@H](CC(C)C)C(=O)N(C)[C@@H](CC(C)C)C(=O)N(C)[C@@H](C(C)C)C(=O)N1C [NIM811] |  |  |  |  |  |  |  |  | reduction of HBsAg secretion from cells compared with controls (HBV in HepG2215 cells): about 50%
C=CC[C@@H]1/C=C(\C)C[C@H](C)C[C@H](OC)[C@H]2O[C@@](O)(C(=O)C(=O)N3CCCC[C@H]3C(=O)O[C@H](/C(C)=C/[C@@H]3CC[C@@H](O)[C@H](OC)C3)[C@H](C)[C@@H](O)CC1=O)[C@H](C)C[C@@H]2OC [FK506] |  |  |  |  |  |  |  |  | effect on HCV replication (HCV replicon): did not have significant effect
C/C=C/C[C@@H](C)[C@@H](O)[C@H]1C(=O)N[C@@H](CC)C(=O)N(C)[C@H](C)C(=O)N(C)[C@@H]([C@@H](C)COC)C(=O)N[C@@H](C(C)C)C(=O)N(C)[C@@H](CC(C)C)C(=O)N[C@@H](C)C(=O)N[C@H](C)C(=O)N(C)[C@@H](CC(C)C)C(=O)N(C)[C@@H](CC(C)C)C(=O)N(C)[C@@H](C(C)C)C(=O)N1C [Compound 2.2, 3-[D-Ala]-4-[(2S,3R)-4-methoxy-3-methyl-2-(methylamino)butanoyl]-cyclosporin] (cyclo(A[dA][NMeL][NMeL][NMeV][MeBmt][Abu][dNMeA][X77]V[NMeL])) | 0.8 nM | 0.8 | 1.7 | 12600 nM | 15000 nM | 1900 nM |  |  | IC50 [2]: 48 nM; NIM TDI kinact/Ki (CYP3A4; probe substrate midazolam): 5 M⁻¹ s⁻¹
C/C=C/C[C@@H](C)[C@@H](O)[C@H]1C(=O)N[C@@H](CC)C(=O)N(C)[C@H](C)C(=O)N(C)[C@@H]([C@H](C)COC(=O)N2CCN(C)CC2)C(=O)N[C@@H](C(C)C)C(=O)N(C)[C@@H](CC(C)C)C(=O)N[C@@H](C)C(=O)N[C@H](C)C(=O)N(C)[C@@H](CC(C)C)C(=O)N(C)[C@@H](CC(C)C)C(=O)N(C)[C@@H](C(C)C)C(=O)N1C [Compound 2.5.9, 3-[D-Ala]-4-[(2S,3S)-3-methyl-2-(methylamino)-4-((4-methylpiperazine-1-carbonyl)oxy)butanoyl]-cyclosporin] (cyclo(A[dA][NMeL][NMeL][NMeV][MeBmt][Abu][dNMeA][X5]V[NMeL])) | 0.3 nM | 0.5 | 0.8 | 17700 nM | 21000 nM | 6700 nM | 90 nM | > 50000 nM | 
C/C=C/C[C@@H](C)[C@@H](O)[C@H]1C(=O)N[C@@H](CC)C(=O)N(C)[C@H](C)C(=O)N(C)[C@@H]([C@H](C)CS(C)(=O)=O)C(=O)N[C@@H](C(C)C)C(=O)N(C)[C@@H](CC(C)C)C(=O)N[C@@H](C)C(=O)N[C@H](C)C(=O)N(C)[C@@H](CC(C)C)C(=O)N(C)[C@@H](CC(C)C)C(=O)N(C)[C@@H](C(C)C)C(=O)N1C [Compound 2.4, 3-[D-Ala]-4-[(2S,3S)-3-methyl-2-(methylamino)-4-(methylsulfonyl)butanoyl]-cyclosporin] (cyclo(A[dA][NMeL][NMeL][NMeV][MeBmt][Abu][dNMeA][X4]V[NMeL])) | 0.6 nM | 0.6 | 1.5 | 1900 nM | 9000 nM | 1400 nM | 95 nM | > 50000 nM | 
C/C=C/C[C@@H](C)[C@@H](O)[C@H]1C(=O)N[C@@H](CC)C(=O)N(C)[C@H](C)C(=O)N(C)[C@@H]([C@H](C)CN2CCOCC2)C(=O)N[C@@H](C(C)C)C(=O)N(C)[C@@H](CC(C)C)C(=O)N[C@@H](C)C(=O)N[C@H](C)C(=O)N(C)[C@@H](CC(C)C)C(=O)N(C)[C@@H](CC(C)C)C(=O)N(C)[C@@H](C(C)C)C(=O)N1C [Compound 2.5.2, 3-[D-Ala]-4-[(2S,3R)-3-methyl-2-(methylamino)-4-morpholinobutanoyl]-cyclosporin] (cyclo(A[dA][NMeL][NMeL][NMeV][MeBmt][Abu][dNMeA][X3]V[NMeL])) | 2.2 nM | 2.9 | 4.3 | 6300 nM | 18000 nM | 8200 nM | 100 nM | > 50000 nM | 
